From patent US10336762B2 (priority 2017, dated 2019)
Read-outs that look alike come from different tables or passages of the source.

Columns and labels:
[1] = test system: TNFα; assay: cells; assay type: cell-based, human; details: LPS-stimulated human monocytes, read-out: EC50 TNF
[2] = target: IRAK4 enzyme (Homo sapiens (Human), UniProt Q9NWZ3); assay: biochemical; assay type: biochemical; details: IRAK4 enzyme, 500 μM ATP
[3] = Homo sapiens, Monocyte, TNFα content

IRAK4 enzyme, sequence (Q9NWZ3 whole entry): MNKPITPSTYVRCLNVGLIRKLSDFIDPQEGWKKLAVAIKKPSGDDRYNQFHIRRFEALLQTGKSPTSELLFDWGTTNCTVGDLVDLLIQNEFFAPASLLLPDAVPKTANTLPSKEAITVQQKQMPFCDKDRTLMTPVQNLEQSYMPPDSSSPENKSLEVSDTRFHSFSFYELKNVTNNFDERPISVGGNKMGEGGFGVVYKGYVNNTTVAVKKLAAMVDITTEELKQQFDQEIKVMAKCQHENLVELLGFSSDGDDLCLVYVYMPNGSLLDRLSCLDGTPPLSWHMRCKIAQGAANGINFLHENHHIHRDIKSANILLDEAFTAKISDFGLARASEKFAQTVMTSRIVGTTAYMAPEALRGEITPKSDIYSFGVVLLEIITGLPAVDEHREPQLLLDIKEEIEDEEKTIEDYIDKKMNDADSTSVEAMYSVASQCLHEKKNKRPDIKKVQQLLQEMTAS

Row | Structure (SMILES) | EC50 [1, 3] [nM] | IC50 ([2]; TR-FRET (HTRF)) [nM] | EC50 ([1]; Homo sapiens, Monocyte, TNFα by TR-FRET) [nM] | IC50 ([2]; TR-FRET) [nM] | EC50 ([1]; TNFα by TR-FRET) [nM]
1 | CC(C)(O)[C@H](F)CNC(=O)c1cnc(-c2ccc3cc(C#N)cnn23)cc1N[C@]1(C)CC[C@H](O)CC1 [Example 432, 6-(3-cyanopyrrolo[1,2-b]pyridazin-7-yl)-N-((R)-2-fluoro-3-hydroxy-3-methylbutyl)-4-(((1s,4S)-4-hydroxy-1-methylcyclohexyl)amino) nicotinamide] | 37 | < 1 | – | – | –
2 | CNC(=O)c1cnc(-c2ccc3cc(C#N)cnn23)cc1NC12CCC(C(=O)N3CC(F)(F)C3)(CC1)CC2 [Example 483, 6-(3-cyanopyrrolo[1,2-b]pyridazin-7-yl)-4-((4-(3,3-difluoroazetidine-1-carbonyl)bicyclo[2.2.2]octan-1-yl)amino)-N-methylnicotinamide] | 64 | 1 | – | – | –
3 | CC1(C(=O)NC[C@H]2C[C@H](Nc3cc(-c4ccc5cc(C#N)cnn45)ncc3C(=O)NC[C@@H](F)C(C)(C)O)C2)COC1 [Example 873, 6-(3-cyanopyrrolo[1,2-b]pyridazin-7-yl)-N-((R)-2-fluoro-3-hydroxy-3-methylbutyl)-4-(((1r,3R)-3-((3-methyloxetane-3-carboxamido)methyl)cyclobutyl)amino) nicotinamide] | – | – | 102 | < 1 | –
4 | COC(=O)NC(C)(C)CCNC(=O)c1cnc(-c2ccc3cc(C#N)cnn23)cc1NC12CCC(O)(CC1)CC2 [Example 343, Methyl (4-(6-(3-cyanopyrrolo[1,2-b]pyridazin-7-yl)-4-((4-hydroxybicyclo[2.2.2]octan-1-yl)amino)nicotinamido)-2-methylbutan-2-yl)carbamate] | 38 | – | – | 1 | –
5 | CC(C)(O)Cn1cc(Nc2cc(-c3ccc4cc(C#N)cnn34)ncc2C(=O)NC[C@@H](F)C(C)(C)O)cn1 [Example 138, (R)-6-(3-cyanopyrrolo[1,2-b]pyridazin-7-yl)-N-(2-fluoro-3-hydroxy-3-methylbutyl)-4-((1-(2-hydroxy-2-methylpropyl)-1H-pyrazol-4-yl)amino)nicotinamide] | 117 | – | – | 1 | –
6 | CC(C)(O)[C@H](F)CNC(=O)c1cnc(-c2ccc3cc(C#N)cnn23)cc1NC1CC2(CCN2CC(F)(F)F)C1 (stereo partly drawn) [Example 910, 6-(3-cyanopyrrolo[1,2-b]pyridazin-7-yl)-N-((R)-2-fluoro-3-hydroxy-3-methylbutyl)-4-(((4S,6r)-1-(2,2,2-trifluoroethyl)-1-azaspiro[3.3]heptan-6-yl)amino)nicotinamide] | – | – | – | 10 | 1210
7 | CC(=O)NC[C@H]1C[C@H](Nc2cc(-c3ccc4cc(C#N)cnn34)ncc2C(=O)NC[C@@H](F)C(C)(C)O)C1 [Example 544, 4-(((1r,3R)-3-(acetamidomethyl)cyclobutyl)amino)-6-(3-cyanopyrrolo[1,2-b]pyridazin-7-yl)-N-((R)-2-fluoro-3-hydroxy-3-methylbutyl)nicotinamide] | 81 | 1 | – | – | –
8 | CCc1ncc(Nc2cc(-c3ccc4cc(C#N)cnn34)ncc2C(=O)NC[C@@H](F)C(C)(C)O)cn1 [Example 680, (R)-6-(3-cyanopyrrolo[1,2-b]pyridazin-7-yl)-4-((2-ethylpyrimidin-5-yl)amino)-N-(2-fluoro-3-hydroxy-3-methylbutyl)nicotinamide] | 15 | < 1 | – | – | –
9 | CC(C)(O)[C@H](F)CNC(=O)c1cnc(-c2ccc3cc(C#N)cnn23)cc1NCc1cccnc1 [Example 170, (R)-6-(3-cyanopyrrolo[1,2-b]pyridazin-7-yl)-N-(2-fluoro-3-hydroxy-3-methylbutyl)-4-((pyridin-3-ylmethyl)amino) nicotinamide] | 217 | – | – | 3 | –
10 | CC(C)(O)[C@H](F)CNC(=O)c1cnc(-c2ccc3cc(C#N)cnn23)cc1N[C@H]1[C@@H]2COC[C@@H]21 [Example 147, 4-(((1R,5S,6r)-3-oxabicyclo[3.1.0]hexan-6-yl)amino)-6-(3-cyano-pyrrolo[1,2-b]pyridazin-7-yl)-N-((R)-2-fluoro-3-hydroxy-3-methylbutyl)nicotinamide] | 47 | – | – | < 1 | –
